Results from patent US20160262394A1, “COMPOSITION COMPRISING AN ACTIVE AND A GRAFT COPOLYMER MADE OF N-VINYLLACTAM, VINYL ESTER, AND AN ALCOHOL ALKOXYLATE” (BASF SE, priority 2013, published 2016).
≈ marks a conversion by molar mass, not a printed value.

Tests used:
[1] = Solubilization of active in 3 wt % polymer solution (high-throughput robot, UV/VIS); format: physicochemical
Protocol: Solubilization measurements were carried out with a highthroughput screening robot. This setup dosed 10 mg solid active and […] of the respective 3 wt % liquid polymer solution (in Cl-PAC water D) into wells on a micro titer plate. After the addition of stirring bars and 24 hours incubation time the samples were filtrated via polypropylene filters in order to separate dissolved active and its solid formatted. The amount of solubilized active was determined via UV/VIS spectroscopy.

[2] = at 20° C.; cited from earlier work

In the case of CC(O)(Cn1cncn1)c1ccc(Oc2ccc(Cl)cc2)cc1C(F)(F)F (centres unmarked) [2-[4-(4-chlorophenoxy)-2-(trifluoromethyl)phenyl]-1-(1H-1,2,4-triazol-1-yl)propan-2-ol], the “Solubility of the triazole fungicide 2-[4-(4-chlorophenoxy)-2-(trifluoromethyl)phenyl]-1-(1H-1,2,4-triazol-1-yl)propan-2-ol” value ([1]; Active without polymer) is reported as 15 ppm.
For NC(=O)N1c2ccccc2C=Cc2ccccc21 [cabamazepine], the Solubility of cabamazepine ([1]; Active without polymer) was 181 ppm.
For N#Cc1nn(-c2c(Cl)cc(C(F)(F)F)cc2Cl)c(N)c1[S+]([O-])C(F)(F)F (centres unmarked) [fipronil], the Solubility of fipronil [1] was 12 ppm.
In the case of Cn1cc(C(=O)Nc2ccccc2-c2cc(F)c(F)c(F)c2)c(C(F)F)n1 [fluxapyroxad], the “Solubility of Xemium ® (fluxapyroxad)” value ([1]; Active without polymer) is listed as 10 ppm and the water solubility [2] is listed as 4 µg/mL (≈ 10.5 µM).
